The data set can be described thus: UV absorption spectrum in ethanol (UV-A screening power). Type of data set: physicochemical. Conditions: UV (EtOH); for E1% / εmax: at λmax.

`C=C(C)COc1ccc(C=C(C#N)S(=O)(=O)c2ccccc2)cc1` [2-benzenesulfonyl-3-[4-(2-methylallyloxy)phenyl]acrylonitrile] had a λmax of 345 nm and an E1% of 736.

As for `C[Si](C)(C)CCCOc1ccc(/C=C(\C#N)S(=O)(=O)c2ccccc2)cc1` [Example 1, 2-benzenesulfonyl-3-[4-(3-trimethylsilanylpropoxy)phenyl]acrylonitrile], the λmax was determined as 347 nm, the E1% is recorded as 813 and the εmax was 32 500.

Consider `CC(COc1ccc(/C=C(\C#N)S(=O)(=O)c2ccccc2)cc1)C[Si](C)(O[Si](C)(C)C)O[Si](C)(C)C` (centres unmarked) [Example 2, [4-[2-methyl-3-[1,3,3,3-tetramethyl-1-[(trimethylsilyl)oxy]disiloxanyl]propyloxy]phenyl]-2-(benzenesulfonyl)acrylonitrile], for which the λmax was 348 nm, the E1% was found to be 632 and the εmax is 35 500.
